# The supplement of paper PMC10307832
# Legend:
# Assay in all cases: relative viability (nuclei count vs DMSO), 5 days (fraction); higher = more cells survive
# [1] = test system: LCLC-103H
# Outline: (§1)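 Five library-drug doses in √10 steps were combined with a fixed anchor-drug dose, or a single drug was given alone, by pin tool to lung cancer cell lines in 1536-well plates the day after seeding. Nuclei were stained and counted after 5 days. Relative viability is the nuclei count in treated wells over that in vehicle wells, taken as the median of duplicate plates.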
# [2] = test system: LXF-289
# Outline: as §1
# [3] = test system: NCI-H1355
# Outline: as §1
# [4] = test system: NCI-H1563
# Outline: as §1
# [5] = test system: NCI-H1651
# Outline: as §1
# [6] = test system: NCI-H1755
# Outline: as §1
# [7] = test system: NCI-H1792
# Outline: as §1
# [8] = test system: NCI-H1915
# Outline: as §1
# [9] = test system: NCI-H2347
# Outline: as §1
# [10] = test system: NCI-H3122
# Outline: as §1
# [11] = test system: NCI-H322M
# Outline: as §1
# [12] = test system: NCI-H441
# Outline: as §1
# [13] = test system: NCI-H460
# Outline: as §1
# [14] = test system: NCI-H520
# Outline: as §1
# [15] = test system: NCI-H522
# Outline: as §1
# [16] = test system: NCI-H596
# Outline: as §1
# [17] = test system: NCI-H661
# Outline: as §1
# [18] = test system: NCI-H727
# Outline: as §1
# [19] = test system: PC-14
# Outline: as §1
# [20] = test system: RERF-LC-KJ
# Outline: as §1
# [21] = test system: SK-MES-1
# Outline: as §1
# [22] = test system: SW 900
# Outline: as §1
structure (smiles),measurement,setting,value
Cc1sc2c(c1C)C(c1ccc(Cl)cc1)=N[C@@H](CC(=O)OC(C)(C)C)c1nnc(C)n1-2 [JQ1] + COc1cccc2cc(-c3nc([C@H]4CC[C@H](C(=O)O)CC4)n4ncnc(N)c34)[nH]c12 [OSI-027] (partner 0.5 µM),relative viability,[1]; first compound 0.04 µM,0.443
same,relative viability,[1]; first compound 0.1265 µM,0.448
same,relative viability,[1]; first compound 0.4 µM,0.367
same,relative viability,[1]; first compound 1.265 µM,0.357
same,relative viability,[1]; first compound 4 µM,0.29
same,relative viability,[2]; first compound 0.04 µM,0.803
same,relative viability,[2]; first compound 0.1265 µM,0.695
same,relative viability,[2]; first compound 0.4 µM,0.614
same,relative viability,[2]; first compound 1.265 µM,0.297
same,relative viability,[2]; first compound 4 µM,0.173
same,relative viability,[3]; first compound 0.04 µM,0.429
same,relative viability,[3]; first compound 0.1265 µM,0.374
same,relative viability,[3]; first compound 0.4 µM,0.42
same,relative viability,[3]; first compound 1.265 µM,0.25
same,relative viability,[3]; first compound 4 µM,0.253
same,relative viability,[4]; first compound 0.04 µM,0.735
same,relative viability,[4]; first compound 0.1265 µM,0.704
same,relative viability,[4]; first compound 0.4 µM,0.605
same,relative viability,[4]; first compound 1.265 µM,0.552
same,relative viability,[4]; first compound 4 µM,0.545
same,relative viability,[5]; first compound 0.04 µM,0.624
same,relative viability,[5]; first compound 0.1265 µM,0.638
same,relative viability,[5]; first compound 0.4 µM,0.591
same,relative viability,[5]; first compound 1.265 µM,0.391
same,relative viability,[5]; first compound 4 µM,0.407
same,relative viability,[6]; first compound 0.04 µM,0.758
same,relative viability,[6]; first compound 0.1265 µM,0.68
same,relative viability,[6]; first compound 0.4 µM,0.668
same,relative viability,[6]; first compound 1.265 µM,0.527
same,relative viability,[6]; first compound 4 µM,0.39
same,relative viability,[7]; first compound 0.04 µM,0.666
same,relative viability,[7]; first compound 0.4 µM,0.82
same,relative viability,[7]; first compound 1.265 µM,0.497
same,relative viability,[7]; first compound 4 µM,0.57
same,relative viability,[8]; first compound 0.04 µM,0.609
same,relative viability,[8]; first compound 0.1265 µM,0.602
same,relative viability,[8]; first compound 0.4 µM,0.59
same,relative viability,[8]; first compound 1.265 µM,0.263
same,relative viability,[8]; first compound 4 µM,0.217
same,relative viability,[9]; first compound 0.04 µM,0.328
same,relative viability,[9]; first compound 0.1265 µM,0.536
same,relative viability,[9]; first compound 0.4 µM,0.305
same,relative viability,[9]; first compound 1.265 µM,0.346
same,relative viability,[9]; first compound 4 µM,0.31
same,relative viability,[10]; first compound 0.04 µM,0.898
same,relative viability,[10]; first compound 0.4 µM,0.784
same,relative viability,[10]; first compound 1.265 µM,0.392
same,relative viability,[10]; first compound 4 µM,0.264
same,relative viability,[11]; first compound 0.04 µM,0.518
same,relative viability,[11]; first compound 0.1265 µM,0.589
same,relative viability,[11]; first compound 0.4 µM,0.477
same,relative viability,[11]; first compound 1.265 µM,0.321
same,relative viability,[11]; first compound 4 µM,0.339
same,relative viability,[12]; first compound 0.04 µM,0.718
same,relative viability,[12]; first compound 0.1265 µM,0.583
same,relative viability,[12]; first compound 0.4 µM,0.705
same,relative viability,[12]; first compound 1.265 µM,0.392
same,relative viability,[12]; first compound 4 µM,0.334
same,relative viability,[13]; first compound 0.04 µM,0.594
same,relative viability,[13]; first compound 0.1265 µM,0.366
same,relative viability,[13]; first compound 0.4 µM,0.259
same,relative viability,[13]; first compound 1.265 µM,0.0873
same,relative viability,[13]; first compound 4 µM,0.0909
same,relative viability,[14]; first compound 0.04 µM,0.211
same,relative viability,[14]; first compound 0.1265 µM,0.325
same,relative viability,[14]; first compound 0.4 µM,0.201
same,relative viability,[14]; first compound 1.265 µM,0.217
same,relative viability,[14]; first compound 4 µM,0.208
same,relative viability,[15]; first compound 0.04 µM,0.657
same,relative viability,[15]; first compound 0.1265 µM,0.556
same,relative viability,[15]; first compound 0.4 µM,0.617
same,relative viability,[15]; first compound 4 µM,0.468
same,relative viability,[16]; first compound 0.04 µM,0.809
same,relative viability,[16]; first compound 0.1265 µM,0.892
same,relative viability,[16]; first compound 0.4 µM,0.539
same,relative viability,[16]; first compound 1.265 µM,0.334
same,relative viability,[16]; first compound 4 µM,0.283
same,relative viability,[17]; first compound 0.04 µM,0.714
same,relative viability,[17]; first compound 0.1265 µM,0.517
same,relative viability,[17]; first compound 0.4 µM,0.603
same,relative viability,[17]; first compound 1.265 µM,0.423
same,relative viability,[17]; first compound 4 µM,0.453
same,relative viability,[18]; first compound 0.04 µM,0.576
same,relative viability,[18]; first compound 0.1265 µM,0.582
same,relative viability,[18]; first compound 0.4 µM,0.414
same,relative viability,[18]; first compound 1.265 µM,0.375
same,relative viability,[18]; first compound 4 µM,0.406
same,relative viability,[19]; first compound 0.04 µM,0.713
same,relative viability,[19]; first compound 0.1265 µM,0.638
same,relative viability,[19]; first compound 0.4 µM,0.514
same,relative viability,[19]; first compound 1.265 µM,0.311
same,relative viability,[19]; first compound 4 µM,0.343
same,relative viability,[20]; first compound 0.04 µM,0.634
same,relative viability,[20]; first compound 0.1265 µM,0.518
same,relative viability,[20]; first compound 0.4 µM,0.531
same,relative viability,[20]; first compound 1.265 µM,0.335
same,relative viability,[20]; first compound 4 µM,0.338
same,relative viability,[21]; first compound 0.04 µM,0.614
same,relative viability,[21]; first compound 0.1265 µM,0.497
same,relative viability,[21]; first compound 0.4 µM,0.379
same,relative viability,[21]; first compound 1.265 µM,0.157
same,relative viability,[21]; first compound 4 µM,0.158
same,relative viability,[22]; first compound 0.04 µM,0.572
same,relative viability,[22]; first compound 0.1265 µM,0.627
same,relative viability,[22]; first compound 0.4 µM,0.352
same,relative viability,[22]; first compound 1.265 µM,0.165
same,relative viability,[22]; first compound 4 µM,0.166
